This note sets out measurements from article PMC8132114 (ACS combinatorial science, 2019).

*1 amine or outer side, *2 acyl side, *3 side chain or, on linkers, in order; H or OH if unused. Where a SMILES comes first, the peptide text is derived from it. [ ]: non-standard residue; d: D form. The star is where a group is joined. X1 = O=C([C@H](CCON=Cc1c(Cl)cncc1Cl)N[*:1])[*:2]; Biotin = O=C1N[C@H]2[C@H](CS[C@H]2CCCCC(=O)*)N1; pY = N[C@@H](Cc1ccc(OP(=O)(O)O)cc1)C(=O)O; Ahx = NCCCCCC(=O)O

In test [1] the test system is VH1. In kind it is biochemical.
For test [2], the system named is VH1. In kind it is biochemical. This is another data set of the same source.
Test [3] has as its target oxime-containing phosphopeptide 6f-w99. Kind of test: SPR. (SPR reads the build-up and loss of mass on a sensor chip optically.)
In test [4] the target is oxime-containing phosphopeptide 6f-w202. Kind of test: SPR.

What is called Kd is the concentration at which binding is half-saturated. Low values mean tighter binding, high ones weaker binding.

`CC(C)[C@H](NC(=O)CCCCCNC(=O)CCCC[C@@H]1SC[C@@H]2NC(=O)N[C@@H]21)C(=O)N[C@@H](CC(=O)O)C(=O)N[C@@H](C)C(=O)N[C@@H](CC(=O)O)C(=O)N[C@@H](CCC(=O)O)C(=O)N[C@@H](Cc1ccc(OP(=O)(O)O)cc1)C(=O)N[C@@H](CCON=Cc1c(Cl)cncc1Cl)C(N)=O` [Peptide 6f-w202] ({Biotin-Ahx}-VDADE[pY][X1]-NH2) returned a percent dephosphorylation in test [1] of 43%.

Ac-OtGGOt-NH2 [Peptide 15]: the “inhibition, VH1 compared with DUSP14” value in test [2] is “greater for VH1 than for DUSP14”.

B1: human DUSP14 C111S substrate-trapping mutant, O95147 1-198 (enzyme)
chain: MSSRGHSTLPRTLMAPRMISEGDIGGIAQITSSLFLGRGSVASNRHLLQARGITCIVNATIEIPNFNWPQFEYVKVPLADMPHAPIGLYFDTVADKIHSVSRKHGATLVHSAAGVSRSATLCIAYLMKFHNVCLLEAYNWVKARRPVIRPNVGFWRQLIDYERQLFGKSTVKMVQTPYGIVPDVYEKESRHLMPYWGI
With B1, the Kd in test [3] came to 94 nM; in test [4], 640 nM.
